In a melting point compilation (Tetko et al.; mined from patent text by program, amines drawn as free bases though some values may be those of a salt):

Row | melting point [°C] | Compound
1 | 218 to 219 | O=C(O)c1ccc(CN(C2CCCCC2O)S(=O)(=O)c2ccc(Cl)cc2)cc1 (stereo not given)
2 | 106 | N#CC1(c2ccc(C(=O)c3cccs3)cc2)CC1
3 | 283 to 285 | Cc1ccc2cccc(OCc3cccc(NC(=O)CN4C(=O)c5ccccc5C4=O)c3C)c2n1
4 | 172 to 176 | CS(=O)(=O)c1ccc(C(CC2CCCC2)C(=O)Nc2ncc(C(=O)O)s2)cc1 (stereo not given)
5 | 184 to 185 | CC(C)CCN1CCC(N(C)S(=O)(=O)c2ccc(Nc3nccc(Nc4ccc(F)cc4)n3)cc2)CC1
6 | 245 | O=C1c2ccccc2C(=O)N1c1ccc2ccc(F)nc2n1
7 | 187 to 189 | Fc1ccc2occ(N3CCN(C4CCN(c5ccc(F)c6cccnc56)CC4)CC3)c2c1
8 | 122 to 123 | CCCCn1ccc(-c2ccc(C(=O)N3Cc4cccn4Cc4ccccc43)cc2)n1
9 | 85 to 87 | CCCc1c(OCCCSc2nc3ccc(C(=O)O)cc3[nH]2)ccc(C(C)=O)c1OC(C)=O
10 | 217 to 218 | Cc1oc(-c2ccc(F)cc2)cc1C(=O)O
11 | 177 to 180 | O=C(O)CCc1cnoc1-c1ccc(Cl)c(Br)c1
12 | 190 to 191 | CC(=O)Nc1ccc([N+](=O)[O-])c(C)c1C(=O)O
13 | 268 to 270 | O=C1CC2(C(=O)N1)C(=O)N(Cc1ccc(Cl)c(Cl)c1)c1ccc(Cl)cc12 (stereo not given)
14 | 231 | CCOc1cc(-c2cc(C(F)F)n3ncc(C(=O)Nc4cccc(S(=O)(=O)N5CCOCC5)c4)c3n2)ccc1C(F)(F)F
15 | 164 | Cc1ccc2c(N3CCN(CCc4cccc(N5CCNC5=O)c4)CC3)cccc2n1
16 | 140 | CN(C)C(=O)Nc1ccc(Oc2ccc(C(F)(F)F)cc2Cl)cc1
17 | 119 to 120 | CCOC(=O)c1cccc([N+](=O)[O-])c1NCc1ccc(-c2ccccc2C#N)cc1
18 | 112 to 115 | CCOC(=O)C1(C(=O)N(Cc2ccccc2)Cc2ccccc2)CC(=O)N(Cc2ccccc2)C1 (stereo not given)
19 | 296 | O=C1C2=C(NC3(OCCO3)C(c3ccccc3)=N2)c2ccccc21
20 | 111 | CCc1cn2ccccc2c1S(=O)(=O)c1ccc(OCCCCBr)cc1

Row | melting point [°C] | Compound
21 | 206 to 208 | CSc1ccc(-c2ccc(C(=O)Nc3ccc4cc(CN5CCCC5)cnc4c3C)cc2)cc1
22 | 122 | CC(C)(C)c1ccc(S(=O)(=O)N2c3ccccc3C[C@H]2C(=O)NCc2cccc(OCCC(=O)O)c2)cc1
23 | 172 to 174 | CCCOc1cc2ccccc2c2c(=O)c(-c3ccc(OC)cc3)c[nH]c12
24 | 224 to 225 | C#Cc1ccc(CCNC(=O)c2cc(Cl)ccc2OC)cc1S(=O)(=O)NC(=S)NC
25 | 126 to 127 | COc1cc(CO)ccc1OCc1nc(-c2ccccc2)cn1C
26 | 150 to 152 | O=[N+]([O-])c1cnn2c1-c1ccccc1NC2C1CCCCC1 (stereo not given)
27 | 98 to 100 | COc1ccc(CSC2=NC(c3cccc(Cl)c3Cl)C(C(=O)OC(C)C)=C(C)N2)cc1 (stereo not given)
28 | 104 to 105 | OCc1cnoc1-c1ccc(Br)cc1
29 | 176 to 178 | CC(=O)N1CCc2cc(S(=O)(=O)n3c(COC(C)(C)C(=O)O)cc4cc(C(F)(F)F)ccc43)ccc21
30 | 137 to 138 | Nc1ccc(C(=O)c2ccccn2)cc1N
31 | 190 | CN(C)CCCOc1ccc2ccc(NC(=O)c3c(F)cccc3F)nc2n1
32 | 75 to 77 | O=c1oc(-c2ccccc2)cc(O)c1C(CCCSc1ccccc1)Sc1ccccc1 (stereo not given)
33 | 165 to 166 | Cc1ccc(C2CC(N)=NN2c2ccccc2)cc1 (stereo not given)
34 | 216 to 222 | Nc1cc(=O)nc(Nc2ccccc2)n1-c1ccc(Cl)cc1
35 | 248 to 249 | COC(=O)C1=C(C)NC(C)=C(c2nc(C)no2)C1c1cccc(N)c1 (stereo not given)
36 | 134 to 135 | COc1ccc(-c2ccc(C(=O)O)c(OC)c2)cc1OC
37 | 144 to 148 | CN(c1nc2ccccc2c(=O)o1)c1ccccc1I
38 | 106 to 109 | COC(=O)[C@H](Cc1ccccc1)NC(=O)CCC(=O)[C@H](Cc1ccccc1)NC(=O)c1ccccc1
39 | 146 | CCCCCC#CCC(Cc1cccnc1)(C(=O)NO)S(=O)(=O)c1ccc(OC)cc1 (stereo not given)
40 | 173 | Cc1nsc(-c2ccc(N3CCN(c4cccc(C(F)(F)F)c4)CC3)nn2)n1

Row | melting point [°C] | Compound
41 | 130 to 135 | O=C(CC12CC3CC(CC(C3)C1)C2)Nc1cccc2nc(CCCNCCCO)ccc12
42 | 207 to 209 | COc1ccc(S(=O)(=O)Nc2cccc(C)c2NC(=O)c2cccnc2)cc1
43 | 264 to 266 | O=[N+]([O-])c1cc(C(F)(F)F)ccc1Sc1nc(-c2ccc(Cl)cc2)c(-c2ccc(Cl)cc2)[nH]1
44 | 118 to 120 | Cc1ccc(CC2CCC(C)(C)C2(O)Cn2cncn2)cc1 (stereo not given)
45 | 187 to 189 | COc1cn(-c2cccc(N3CCOCC3)c2F)nc(-c2ccnn2-c2ccccc2)c1=O
46 | 94 to 96 | Nc1sc2c(c1C(=O)c1ccc3ccccc3c1)CCN(Cc1ccc(F)cc1)C2
47 | 200 | C[C@@H]1CN(CC(=O)Nc2nc3ccccc3n2C)C[C@H](C)N1c1ncnc2sccc12
48 | 181 to 183 | Cn1cc(-c2nn(-c3cccc(C(F)(F)F)c3)ccc2=O)c(-c2ccccc2)n1
49 | 263 to 264 | O=C1OCc2c(c3cc(-c4ccc(Cl)cc4)ccc3n2Cc2ccccc2)C1=O
50 | 156 to 158 | Cc1ccc(-c2c(NS(=O)(=O)c3ccc(C(C)(C)COc4ncc(Br)cn4)cc3)ncnc2OCCOc2ncc(Br)cn2)cc1
51 | 79 to 80 | CC(=O)SCC(CC(=O)c1ccc(Br)cc1)C(=O)OCc1ccccc1 (stereo not given)
52 | 137 to 139 | CS(=O)c1ccc(S(=O)(=O)N2CCCC(c3ccccc3)=N2)cc1 (stereo not given)
53 | 205 to 211 | NCC1CN(c2cc3c(cc2F)c(=O)c(C(=O)O)cn3C2CC2)C1
54 | 125 to 127 | S=C1Nc2ccccc2N2CCN(Cc3ccccc3)CCN12
55 | 270 | O=C(Oc1ccccc1)OC1C2=C(OCCS2)C(=O)N1c1ccc2ccc(Cl)nc2n1 (stereo not given)
56 | 181 | Cc1c2sc3ccccc3nc-2c2ccccc2c1=O
57 | 105 to 108 | COC(=O)C(=O)c1cn2c3c(cccc13)CCC2
58 | 213 to 216 | CS(=O)(=O)c1ccc(-c2cnn(-c3ccc(S(N)(=O)=O)cc3)c(=O)c2-c2ccc(F)cc2)cc1

Second part, the compound before the results:

Row | Compound | melting point [°C]
59 | Nc1cccc2c1C1CC3(CCN1C2=O)OCCO3 (stereo not given) | 76
60 | Cc1cc(C2=NOC(c3cc(Cl)cc(Cl)c3)(C(F)(F)F)C2)ccc1S(=O)(=O)NCc1ccccn1 (stereo not given) | 57 to 58
61 | CC(Br)C(=O)NOCc1ccccc1 (stereo not given) | 75.3 to 77.4
62 | CCOC(=O)CCCCC(=O)c1c(CBr)n(C(C)=O)c(=O)n1C(C)=O | 114 to 115
63 | CCN(CC)S(=O)(=O)c1ccc2[nH]c(-c3c(C)c(Cl)cc(C(C)(C)C)c3O)nc2c1 | 277 to 278
64 | CCOC(=O)Oc1ccc(N)c(C(=O)O)c1 | 157 to 158
65 | CCCCCCSc1ncnc2c1ncn2C1CC(F)C(CO)O1 (stereo not given) | 46 to 49
66 | CC(C)Cc1ccc(C(C)C(=N)NO)cc1 (stereo not given) | 75 to 78
67 | COc1ccc(S(N)(=O)=O)cc1C(C)=O | 203 to 206
68 | COCCn1nc2c(N)nc3ccccc3c2c1CC(C)(C)N | 199 to 200
69 | COc1nc2cc(Cl)c(Cl)c(CSC)c2nc1OC | 143 to 145
70 | COC(=O)c1cc(O)cc(C(=O)OC)c1[N+](=O)[O-] | 183 to 186
71 | CCNC(=O)c1c(C)cccc1N(C)C(C)(C)C | 101 to 103
72 | COC(=O)[C@@]12CN(Cc3ccccc3)C[C@@H]1[C@@](O)(c1ccc(C)cc1)CC[C@H]2c1ccccc1 (racemic) | 164
73 | CCc1c(C)nc2ccc([N+](=O)[O-])cn2c1=O | 164 to 165
74 | Cc1ccc(S(=O)(=O)C[N+](=O)[O-])s1 | 73 to 74
75 | CN1OCC/C(=C\c2nc(C(C)(C)C)c(O)c(C(C)(C)C)n2)C1=O | 180 to 181
76 | CCCCCCCCCCCCCCCCCCOc1cc(C(=O)O)cc(N(CC(=O)O)CC(=O)O)c1 | 149 to 155
77 | COc1ccc(S(C)(=O)=O)cc1C=O | 140 to 143
78 | COC(=O)CC(=O)c1cc(F)c(Cl)cc1Cl | 77 to 79
79 | CCC(=O)Nc1ccc(C=CC(=O)O)cc1 | 243

Row | Compound | melting point [°C]
80 | CCCCCCCCCCCCCCOc1ccc(CNc2ccccc2CO)cc1 | 72 to 75
81 | Clc1cc(NC23CC4CC(CC(C4)C2)C3)nc(N2CCCC2)n1 | 186 to 190
82 | C=CCNc1ccnc2cn[nH]c12 | 230 to 232
83 | N#Cc1ccc(Br)cc1Br | 76 to 78
84 | Nc1c(Br)cc(Oc2cc(Br)c(N)c(Br)c2)cc1Br | 166 to 167
85 | CCOC(=O)c1cn(C2CC2)c2c(F)c(NCCCO)c(F)cc2c1=O | 160 to 162
86 | CCN(C(=O)c1ccccc1[Si](C)(C)C)C(OC)C(C)(C)C (stereo not given) | 76 to 78
87 | CC(=O)OCc1cccc(N)c1I | 80 to 81
88 | CCCCC(N)S(=O)(=O)O (stereo not given) | 142
89 | Cc1c(C(F)(F)F)cc(Cl)c(-n2cnc(C(F)(F)F)cc2=O)c1Cl | 204 to 206
90 | CC(=O)Nc1nc(CCc2ccc(CCC(=O)O)s2)cs1 | 164 to 165
91 | Cc1nc2ccnn2c(=O)[nH]1 | 268
92 | CC(C)CNc1nc2cc(Cl)c(Cl)cc2n1[C@H]1O[C@@H](CO)[C@H](O)[C@@H]1O | 136
93 | COC(=O)C1=C(N)C(CCCCC(=O)O)SC1 (stereo not given) | 98 to 102
94 | COSN=C1C(=O)N(C)C(=O)N1c1ccccc1F | 124 to 127
95 | CC(=O)c1cc2cc(OCC(=O)O)c(Cl)c(Cl)c2s1 | 203 to 205
96 | O=C(O)c1cn(C2CC2)c2c(F)c(N3CCNCC3)c(F)cc2c1=O | > 270
97 | CC(C)(C)NC(=O)c1ccc(Cl)nc1 | 108 to 110
98 | CCOC(=O)[C@H](C)Nc1c(C)cc(C)cc1C | 81 to 83
99 | CCN(c1c(Cl)c(C(F)(F)F)cc2[nH]c(=O)c(=O)[nH]c12)S(C)(=O)=O | > 300
100 | NS(=O)(=O)Cc1nc(-c2ccc(Cl)c(Cl)c2)cs1 | 187 to 190
